In patent US20050256308A1, “Spiro compounds, medicinal compositions containing the same and intermediates of the compounds” (Dainippon Pharmaceutical Co., Ltd., priority 2002, published 2005):
Where a name gives a salt, the structure may show the parent alone.

What was measured:
[1] = system: Jcl:SD male rats; assay: Effect on serum cholesterol level in rat; format: in vivo; conditions: for Blood cholesterol: oral once a day for 4 days; for Blood cholesterol lowering action: summary of Table 6(1) and 6(2)
Description: A test compound was dissolved in 10% aqueous cyclodextrin solution, and orally administrated to 7-week-old Jcl:SD male rats (manufactured by CLEA Japan, Inc.) once a day for 4 consecutive days. The blood was drawn on the next day of the final administration, and plasma cholesterol was measured using a measurement kit (cholesterol CII-testwako, manufactured by Wako Pure Chemical Industries, Ltd.).

[2] = system: ovariectomized rats; assay: Effects on climacteric syndrome (hot flash-like symptom): tail skin temperature of ovariectomized rats; format: in vivo, rat; conditions: for Effect on the action of β-estradiol on the tissues involved in the hot flash-like symptom: combined use, summary of Table 3; for Effect on hot flash-like symptom: summary of Table 2
Description: The effect of the compound of the present invention on climacteric syndrome was investigated using ovariectomized rats. The ovariectomized rats were prepared by removing the ovary on the both sides from 8-week-old Jcl:SD female rats (manufactured by CLEA Japan, Inc.) under ether anesthesia. The rats were bred under the conditions of illumination for 12 hours (6:00-18:00) every day, room temperature 24±0.5° C., and were allowed free intake of solid feed (CE-2, manufactured by CLEA Japan, Inc.) and water. The rats after 2 weeks of ovariectomy were subjected to the following experiment. The rats to be used for sham surgery group were treated in the same manner except ovariectomy.
The rats after 2 weeks of ovariectomy and sham surgery were subjected to the measurement of tail skin temperature by reference to the method of Hosono et al. (Am. J. Physiol. Regulatory Integrative Comp. Physiol. 280: R1341-R1347, 2001) without anesthesia. To be specific, a temperature sensor (SXK-67, manufactured by TAKARA THERMISTOR) was fixed at 5 cm from the base of the tail of the rats with an adhesive plaster (manufactured by NICHIBAN), and covered with an aluminum plate. The other end of the temperature sensor was connected to a fluclet (manufactured by DAINIPPON PHARMACEUTICAL CO., LTD.) via an amplifier (E332, manufactured by TAKARA THERMISTOR) and measurement and analysis were performed for 2 hr. The results are shown in Table 1, wherein an incidence of a hot flash-like symptom was confirmed at the tail of the ovariectomized rats.
A test compound was dissolved in a solvent (10% aqueous cyclodextrin solution), and orally administered to ovariectomized rats once a day for two consecutive weeks. The tail skin temperature was measured in the same manner as in the aforementioned method on the day of the final administration.

[3] = system: ovariectomized rats; assay: Effect on decreased femur bone density of ovariectomized rat (pQCT); format: in vivo; conditions: for Bone density: femural metaphysis, oral once a day for 4 weeks; for Effect on decrease in the bone density due to ovariectomy: summary of Table 5(1) and 5(2)
Source text: The ovary on the both sides of 13-week-old Jcl:SD female rats (manufactured by CLEA Japan, Inc.) were removed under ether anesthesia or the rats were subjected to a sham surgery, and a test compound dissolved in 10% aqueous cyclodextrin solution was orally administrated from the next day once a day for 4 consecutive weeks (10 rats/group). The rats were sacrificed by hemorrhage on the next day of the final administration and the left femur was removed. The bone density of the femural metaphysis was measured using pQCT [peripheral Quantitative Computed Tomography, XCT-960A, manufactured by Norland-Stratec].

[4] = system: ovariectomized rats; assay: Uterus weight of ovariectomized rat (side effects); format: in vivo; conditions: for Uterus weight: ovariectomized rat
Description: (§1) A test compound was dissolved in 10% aqueous cyclodextrin solution and orally administered to ovariectomized rats once a day for two consecutive weeks. The blood was drawn under ether anesthesia. The blood sample was allowed to coagulate at room temperature for 1 hr and centrifuged at 3000 rpm for 10 min to give serum. The amount of LH in serum was measured using a rat LH radioimmunoassay kit (manufactured by Immunotec Research Ltd., France).
To investigate the side effects of the compound of the present invention, the test compound was orally administered consecutively to ovariectomized rats and sham surgery rats in the same manner as in Experimental Example 1b, the uterus was removed and weighed.

[5] = system: ovariectomized rats; assay: Luteinizing hormone (LH) level in serum of ovariectomized rats; format: in vivo; conditions: ovariectomized rat; for Serum LH: oral once a day for two weeks
Description: as §1

[6] = Table 2, oral once a day for two weeks, dose 0.1 mg/kg
[7] = Table 2, oral once a day for two weeks, dose 1.0 mg/kg
[8] = Table 2, oral once a day for two weeks, dose 10.0 mg/kg
[9] = Table 7, oral once a day for two weeks, dose 1.0 mg/kg

CC(C)CN1CCC(c2ccc(C3=CC4(CCc5cc(O)ccc54)c4ccc(O)cc43)cc2)CC1 (stereo not shown) [Example 30, 3-[4-(1-isobutyl-4-piperidinyl)phenyl]spiro[indene-1,1′-indan]-5,5′-diol hydrochloride]
Blood cholesterol ([1]; Table 6(2), dose 1.0 mg/kg): 23.6 ± 2.2 mg/dL
Blood cholesterol lowering action [1]: significant blood cholesterol lowering action at a lower dose than β-estradiol

Oc1ccc2c(c1)CCC21C=C(c2ccc(OCCN3CCCCC3)cc2)c2cc(O)ccc21 (stereo not shown) [Example 1, 3-[4-(2-piperidinoethoxy)phenyl]spiro[indene-1,1′-indan]-5,5′-diol hydrochloride]
Average tail skin temperature [2, 6]: 29.4 ± 0.3 °C
Average tail skin temperature [2, 7]: 28.9 ± 0.4 °C
Average tail skin temperature [2, 8]: 28.0 ± 0.5 °C
Effect on the action of β-estradiol on the tissues involved in the hot flash-like symptom [2]: did not inhibit the action of β-estradiol
Effect on hot flash-like symptom [2]: improved the hot flash-like symptom
Bone density ([3]; Table 5(1), dose 1.0 mg/kg): 738.0 ± 47.9 mg/mL
Effect on decrease in the bone density due to ovariectomy [3]: significantly suppressed the decrease in the bone density
Blood cholesterol ([1]; Table 6(1), dose 0.03 mg/kg): 63.1 ± 4.8 mg/dL
Blood cholesterol ([1]; Table 6(1), dose 0.1 mg/kg): 53.8 ± 7.3 mg/dL
Blood cholesterol ([1]; Table 6(1), dose 0.3 mg/kg): 41.6 ± 5.2 mg/dL
Blood cholesterol lowering action [1]: significant blood cholesterol lowering action at a lower dose than β-estradiol
Uterus weight [4, 9]: 178.6 ± 9.3 mg
Effect on uterus weight of ovariectomized rat ([4]; summary of Table 7): does not significantly increase the uterus weight
Effect on the uterus weight increasing action of β-estradiol ([4]; summary of Table 8): significantly suppressed the uterus weight increasing action of β-estradiol
Serum LH ([5]; dose 1.0 mg/kg): 10.1 ± 0.60 ng/mL
Effect on increase in the LH amount due to ovariectomy ([5]; summary of Table 4): significantly suppressed increase in the LH amount

Cl.Oc1ccc2c(c1)CCC21C=C(c2ccc(OCCN3CCCCC3)cc2)c2cc(O)ccc21 (single isomer, unassigned; (+)) [Example 37, (+)-3-[4-(2-piperidinoethoxy)phenyl]spiro[indene-1,1′-indan]-5,5′-diol hydrochloride]
Bone density ([3]; Table 5(2), dose 0.01 mg/kg): 551 ± 10 mg/mL
Bone density ([3]; Table 5(2), dose 0.1 mg/kg): 620 ± 15 mg/mL
Bone density ([3]; Table 5(2), dose 1.0 mg/kg): 658 ± 17 mg/mL
Effect on decrease in the bone density due to ovariectomy [3]: significantly suppressed the decrease in the bone density

C[C@]12CC[C@@H]3c4ccc(O)cc4CC[C@H]3[C@@H]1CC[C@@H]2O [β-estradiol, reference compound]
Average tail skin temperature ([2]; Table 2, oral once a day for two weeks, dose 3.0 mg/kg): 28.4 ± 0.6 °C
Average tail skin temperature [2, 8]: 27.7 ± 0.2 °C
Average tail skin temperature ([2]; Table 3, oral once a day for two weeks, single use, dose 3.0 mg/kg): 28.1 ± 0.6 °C
Bone density ([3]; Table 5(1), dose 1.0 mg/kg): 767.3 ± 63.9 mg/mL
Blood cholesterol ([1]; Table 6(1), dose 0.3 mg/kg): 62.7 ± 7.5 mg/dL
Blood cholesterol ([1]; Table 6(1), dose 1.0 mg/kg): 42.8 ± 6.1 mg/dL
Blood cholesterol ([1]; Table 6(1), dose 3.0 mg/kg): 25.8 ± 2.0 mg/dL
Uterus weight [4, 9]: 406.3 ± 20.6 mg
Uterus weight ([4]; Table 8, single administration, dose 3.0 mg/kg): 491.7 ± 19.6 mg
Serum LH ([5]; dose 3.0 mg/kg): 7.6 ± 0.97 ng/mL

Cl.Oc1ccc2c(c1)CC[C@@]21C[C@@H](c2ccc(OCCN3CCCCC3)cc2)c2cc(O)ccc21 (relative stereo) [Example 36A, (1R*,3S*)-3-[4-(2-piperidinoethoxy)phenyl]-1,1′-spirobiindan-5,5′-diol hydrochloride]
Average tail skin temperature [2, 6]: 29.9 ± 0.4 °C
Average tail skin temperature [2, 7]: 29.4 ± 0.4 °C
Average tail skin temperature [2, 8]: 29.0 ± 0.4 °C
Effect on the action of β-estradiol on the tissues involved in the hot flash-like symptom [2]: did not inhibit the action of β-estradiol
Effect on hot flash-like symptom [2]: improved the hot flash-like symptom
